A short description of data set [1]: Circular dichroism (CD), calculated helicity. Format: physicochemical. The conditions noted are these: 50 μM peptide in 30% PBS (pH 7.4) and 70% acetonitrile, calculated from CD spectra. As for the experimental part:
Lyophilized compounds (YL2 and YL2-HyT1 through YL2-HyT6) were dissolved in 30% PBS (pH 7.4) and 70% acetonitrile solution to a final concentration of 50 μM. CD spectra were measured with a Jasco J-815 CD spectropolarimeter using a quartz cuvette (2 mm path length). These spectra were averages of five successive accumulations with a scan rate of 100 nm/min. Raw data were converted in terms of per-residue molar ellipticity (deg·cm^2·dmol^−1·residue^−1) as calculated per mole of amide groups present and normalized by the molar concentration of peptides. Smoothing and correction of background spectra were performed with Origin Pro 8.0 (OriginLab Corporation, Northampton, MA, USA). Then α-helical propensities of YL2 and YL2-HyT1 through YL2-HyT6 were calculated as previously reported.

Data set [2] concerns CSF-1 mRNA in MDA-MB-231 cells. As to the kind of experiment: RT-qPCR of CSF-1 mRNA. It counts as cell-based, human. As to conditions: 18 h, RT-qPCR normalized to 18S. The procedure: (§1) Quantitative real-time PCR was performed for CSF-1, E-cadherin, and 18S (as a reference gene) mRNAs. MDA-MB-231 cells (1.2 × 10^5 cells/well) were seeded into a 12-well plate and incubated at 37 °C with 5% CO2 for 24 h. These cells were treated with indicated compounds (YL2, adamantane, ND1-YL2, or YL2-HyT6) for 18 h in Opti-MEM medium. After cells were washed with cold DPBS, mRNAs were isolated from these cells using an AccuPrep Universal RNA extraction kit (Bioneer, Daejeon, Korea). Then 1.5 µg of mRNAs were reverse-transcribed using AccuPower RocketScript Cycle RT PreMix (Bioneer) to generate complementary DNAs. RT-qPCR for CSF-1, E-cadherin, and 18S was performed with a StepOnePlus Real-Time PCR System (Applied Biosystems, Waltham, MA, USA) and SYBR Green mix (Applied Biosystems) according to the manufacturer’s instructions with gene-specific primers (Table 1).
(Real-time PCR tracks product formation cycle by cycle.)

The test system of data set [3] is E-cadherin mRNA in MDA-MB-231 cells. As to the kind of experiment: RT-qPCR of E-cadherin mRNA. Format: cell-based, human. The conditions noted are these: 18 h, RT-qPCR normalized to 18S. As for the experimental part:
as §1

Data set [4] concerns the target SRC-1. As to conditions: in vitro binding activity; cited from earlier work. From the text: The SRC-1 degrader ND1-YL2 is a chimeric molecule composed of a ligand (YL2) for SRC-1 [31] and a UBR E3 ligase binder (Figure 2). […] ND1-YL2 was generated by conjugating a tetrapeptide RLAA, the N-degron peptide as a binder for UBR. Thus, this bifunctional molecule enables the recruitment of SRC-1 to UBR protein, thereby promoting the formation of a ternary complex for polyubiquitination and proteasomal degradation of SRC-1.

In data set [5] the test system is SRC-1. As to conditions: stapled peptide lacking the hydrophobic tag; cited from earlier work. The procedure:
Cellular levels of SRC-1 were analyzed at various time points (12, 18, and 24 h) by immunoblotting.

On the set-up of data set [6]: method as in PMID 29090910. The conditions noted are these: compared with the corresponding native peptide sequence; cited from earlier work.
Details of data set [7]: method as in PMID 29090910. As to conditions: cited from earlier work.

Bridge positions count the residues as written; N and C are the ends. Square brackets hold non-standard residues; d marks the D form. Peptide text beside a SMILES is read from it. Cha = N[C@@H](CC1CCCCC1)C(=O)O; S5 = C=CCCC[C@](C)(N)C(=O)O

As for `CC(C)C[C@@H]1NC(=O)[C@H](CCCCN)NC(=O)[C@@](C)(NC(=O)[C@H](CC(C)C)NC(=O)[C@H](CC(=O)O)NC(=O)[C@H](CCC(N)=O)NC(=O)[C@H](CCC(=O)O)NC(=O)[C@@H](NC(=O)[C@@H]2CCCN2C(=O)[C@@H]2CCCN2C(=O)[C@H](CC(C)C)NC(=O)[C@@H](N)CC(C)C)[C@@H](C)O)CCC/C=C\CCC[C@@](C)(C(=O)N[C@@H](Cc2ccc(O)cc2)C(N)=O)NC(=O)[C@H](CC2CCCCC2)NC1=O` [YL2] (H-LLPPTEQDL[S5]KL[Cha][S5]Y-NH2; staple (Z) 10-14; N-terminus assumed), the “Helicity (%)” value in data set [1] is 32.5%. For the same compound, the “CSF-1 mRNA expression level” value in data set [2] was “no effect”. For the same compound, the “E-cadherin mRNA expression level” value in data set [3] is reported as “no effect”. In addition, the Ki (usually the dissociation constant of the complex between target and ligand, obtained from inhibition or displacement) in data set [4] is 140 nM. Further, in data set [5], the SRC-1 degradation result is “unable to induce SRC-1 degradation”. The Proteolytic resistance entry in data set [6] is “increased proteolytic resistance”. Moreover, the Cell penetration ability entry in data set [7] is reported as “reasonable cell penetration ability”.
